# Measurements: patent publication US10738028B2, “Spiro three-membered ring, spiro five-membered ring peptide deformylase inhibitor and use thereof in antibacteria and anti-tumor” (priority 2016, dated 2020)
# Where two headings read alike, the source gives them in different places.
# Key:
# Format in all cases: cell-based
# [1] = tested on: HCT-116 colorectal cancer cell line; assay: CCK-8 proliferation inhibition; conditions: Homo sapiens, HCT-116, 72 h, concentration of 30 μM, 72 hours, CCK-8
# Summary of the method: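 2000 cells/well, McCoy's 5A + 10% newborn bovine serum; overnight attach, 37° C./5% CO2. Cpd from DMSO stock diluted in medium, 72 h. Readout: CCK-8 (1:10). Ctrl 1‰ DMSO.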
# [2] = tested on: MGC-803 gastric cancer cell line; assay: CCK-8 proliferation inhibition; conditions: Homo sapiens, MGC-803, 72 h, concentration of 30 μM
# Source text: (§1) 2. The present invention adopts the CCK-8 method to determine the proliferation inhibition effect of the spiro three-membered ring, spiro five-membered ring peptide deformylase inhibitor as described in Examples 1-80 against colorectal cancer cells, lung cancer cells, gastric cancer cells, liver cancer cells, and the like. […] The compound having the best activity synthesized in Example 64 was further tested for its inhibitory activity against other tumor cells including T cell leukemia, acute myeloid leukemia, cervical cancer, breast cancer, prostate cancer and osteosarcoma, and the like (see Table 7).
# (§2) (1) HCT-116 colorectal cancer cell line, A549 lung cancer cell line, MGC-803 gastric cancer cell line, BEL-7402 liver cancer cell line, Jurkat T cell leukemia cell line, HL60 acute myeloid leukemia cell line, Hela cervical cancer cell line, MCF-7 breast cancer cell line, PC3 prostate cancer cell line and SAOS-2 osteosarcoma cell line were made into single cell suspension, 180 μL of which was inoculated into 96-well culture plate, which was cultured overnight in CO2 incubator (37° C., 5% CO2, 95% air).
# (§3) (2) Each of the spiro three-membered ring, spiro five membered ring peptide deformylase inhibitors was dissolved in DMSO, and was further formulated into drug solution with required different final concentration using corresponding cell culture medium. The drug solutions were added to the above cells respectively (20 μL/well), with the control group added with 1‰ DMSO, and cultured in a CO2 incubator for 72 hours.
# (§4) (3) After incubation for 72 hours, the culture solution was decanted, and 100 μL of 1:10 diluted CCK-8 solution was added.
# (§5) Wherein, in step (1), the concentration of the single cell suspension was 2000 cells/well.
# (§6) Wherein, in step (2), HCT-116 cells were cultured in McCoy's 5A medium (containing 10% newborn bovine serum, 1% double antibody); A549 and PC3 cells were cultured in F12 medium (containing 10% newborn bovine serum, 1% double antibody); MGC-803, BEL-7402, SAOS-2, Jurkat and HL60 cells were cultured in 1640 medium (containing 10% newborn bovine serum, 1% double antibody); and MCF-7 and Hela cells were cultured in DMEM high glucose medium (containing 10% newborn bovine serum, 1% double antibody).
# [3] = tested on: A549 lung cancer cell line; assay: CCK-8 proliferation inhibition; conditions: Homo sapiens, A549, 72 h, concentration of 30 μM
# Source text: as §1, §2, §3, §4, §5, §6
# [4] = tested on: BEL-7402 liver cancer cell line; assay: CCK-8 proliferation inhibition; conditions: concentration of 30 μM
# Source text: as §1, §2, §3, §4, §5, §6
# [5] = tested on: methicillin-resistant Staphylococcus epidermidis (MRSE); assay: MIC, two-fold agar dilution (CLSI), clinical isolates
# Summary of the method: (§7)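 Test samples were assayed by the CLSI-recommended two-fold agar dilution method, and the minimum inhibitory concentration against each tested strain was determined.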
# [6] = tested on: methicillin-sensitive Staphylococcus epidermidis (MSSE); assay: as above
# Summary of the method: as §7
# [7] = tested on: Enterococcus faecalis (EFA); assay: as above
# Summary of the method: as §7
# [8] = tested on: methicillin-resistant Staphylococcus aureus (MRSA); assay: as above
# Summary of the method: as §7
# [9] = tested on: Escherichia coli (including ESBLs, non-ESBLs); assay: as above
# Summary of the method: as §7
# [10] = tested on: methicillin-sensitive Staphylococcus aureus (MSSA); assay: as above
# Summary of the method: as §7
# [11] = tested on: Moraxella catarrhalis (BCA); assay: as above
# Summary of the method: as §7
# [12] = tested on: Streptococcus pneoumoniae (SPN); assay: as above
# Summary of the method: as §7
# [13] = tested on: Enterococcus faecium (EFM); assay: as above
# Summary of the method: as §7
compound,measurement,setting,value
"O=CN(O)C[C@@H](CC1CCCC1)C(=O)N1CC2(CC2)C[C@H]1C(=O)Nc1ccc(N2CCOCC2)cc1 [Example 25, (S)-5-((R)-3-cyclopentyl-2-((N-hydroxyformamido)methyl)propionyl)-N-(4-morpholinophenyl)-5-spiro[2.4]heptane-6-carboxamide]",inhibition at 30 µM,"[1]; Table 5, read-out: Inhibition of proliferation, Colorectal cancer HCT116",≥ 30%
same,inhibition at 30 µM,[1]; read-out: HCT116 inhibition rate/%,35%
same,inhibition at 30 µM,[2],27%
same,inhibition at 30 µM,[3],30%
same,inhibition at 30 µM,"[4]; Homo sapiens, Bel-7402, 72 h",> 50%
same,"Inhibition of proliferation, Liver cancer BEL-7402","[4]; 72 hours, 30 µM",65%
same,MIC (anti-bacterial activity),[5]; strain MRSE 15-1,0.06 µg/mL
same,MIC (anti-bacterial activity),[5]; strain MRSE 15-2,0.25 µg/mL
same,MIC (anti-bacterial activity),[5]; strain MRSE 15-3,0.25 µg/mL
same,MIC (anti-bacterial activity),[5]; strain MRSE 15-7,0.25 µg/mL
same,MIC (anti-bacterial activity),[6]; strain MSSE 15-3,0.25 µg/mL
same,MIC (anti-bacterial activity),[6]; strain MSSE 15-4,0.25 µg/mL
same,MIC (anti-bacterial activity),[6]; strain MSSE 15-5,0.25 µg/mL
same,MIC (anti-bacterial activity),[6]; strain MSSE 15-6,0.25 µg/mL
same,MIC (anti-bacterial activity),[7]; strain EFA 15-1,2 µg/mL
same,MIC (anti-bacterial activity),[7]; strain EFA 15-2,2 µg/mL
same,MIC (anti-bacterial activity),[7]; strain EFA 15-3,0.5 µg/mL
same,MIC (anti-bacterial activity),[7]; strain EFA 15-4,2 µg/mL
same,MIC (anti-bacterial activity),[7]; strain EFA 15-5,2 µg/mL
same,MIC (anti-bacterial activity),[7]; strain EFA 15-6,2 µg/mL
same,MIC (anti-bacterial activity),[7]; strain EFA 15-9,2 µg/mL
same,MIC (anti-bacterial activity),[8]; strain MRSA 15-1,0.25 µg/mL
same,MIC (anti-bacterial activity),[8]; strain MRSA 15-2,0.25 µg/mL
same,MIC (anti-bacterial activity),[8]; strain MRSA 15-3,0.25 µg/mL
same,MIC (anti-bacterial activity),[8]; strain MRSA 15-4,0.25 µg/mL
same,MIC (anti-bacterial activity),[9]; strain ECO+ 15-1,32 µg/mL
same,MIC (anti-bacterial activity),[9]; strain ECO+ 15-2,> 32 µg/mL
same,MIC (anti-bacterial activity),[9]; strain ECO+ 15-3,> 32 µg/mL
same,MIC (anti-bacterial activity),[9]; strain ECO+ 15-4,> 32 µg/mL
same,MIC (anti-bacterial activity),[9]; strain ECO− 15-1,> 32 µg/mL
same,MIC (anti-bacterial activity),[9]; strain ECO− 15-2,> 32 µg/mL
same,MIC (anti-bacterial activity),[9]; strain ECO− 15-3,> 32 µg/mL
same,MIC (anti-bacterial activity),[9]; strain ECO− 15-4,> 32 µg/mL
same,MIC (anti-bacterial activity),[10]; strain MSSA 15-3,0.25 µg/mL
same,MIC (anti-bacterial activity),[10]; strain MSSA 15-4,0.25 µg/mL
same,MIC (anti-bacterial activity),[10]; strain MSSA 15-5,0.25 µg/mL
same,MIC (anti-bacterial activity),[10]; strain MSSA 15-6,0.25 µg/mL
same,MIC (anti-bacterial activity),[11]; strain BCA 14-1,0.5 µg/mL
same,MIC (anti-bacterial activity),[11]; strain BCA 14-4,0.25 µg/mL
same,MIC (anti-bacterial activity),[11]; strain BCA 14-5,0.5 µg/mL
same,MIC (anti-bacterial activity),[11]; strain BCA 14-6,1 µg/mL
same,MIC (anti-bacterial activity),[11]; strain BCA 14-7,0.25 µg/mL
same,MIC (anti-bacterial activity),[11]; strain BCA 14-8,0.25 µg/mL
same,MIC (anti-bacterial activity),[11]; strain BCA 14-10,0.25 µg/mL
same,MIC (anti-bacterial activity),[12]; strain SPN 16-2,0.5 µg/mL
same,MIC (anti-bacterial activity),[12]; strain SPN 16-4,2 µg/mL
same,MIC (anti-bacterial activity),[13]; strain EFM 15-1,1 µg/mL
same,MIC (anti-bacterial activity),[13]; strain EFM 15-2,0.5 µg/mL
same,MIC (anti-bacterial activity),[13]; strain EFM 15-3,0.5 µg/mL
same,MIC (anti-bacterial activity),[13]; strain EFM 15-4,0.25 µg/mL
same,MIC (anti-bacterial activity),[13]; strain EFM 15-5,0.5 µg/mL
same,MIC (anti-bacterial activity),[13]; strain EFM 15-6,1 µg/mL
